Laboratory results reported in patent US20110008433A1, “Herbal Composition for Osteoarthritis” (priority 2009, published 2011).
Several values for one entry are separate records, joined by “and”; a condition that tells them apart may be missing. Equal values may be shown once.

Tests used:
[1] = Free radical scavenger, SOD mimetic activity (xanthine/xanthine oxidase, NBT); type: biochemical
Method: SO101C or vehicle was incubated with 0.12 mM xanthine, 6 mU xanthine oxidase, 27 μM nitroblue tetrazolium (NBT), 0.11 mM EDTA, 0.005% bovine serum albumin and Na2CO3 at pH 10.5 at 25° C. for 20 minutes. Conversion of xanthine to uric acid +O^−+NBT to formazan was then determined by measurement of absorbance at 595 nm and percent inhibition by superoxide dismutase or test compound was calculated.

MMP-2 [2] = biological target: T1, MMP-2 (Homo sapiens, UniProt P08253); experiment: Inhibition of MMP-2 activity in cell free system, gelatin zymography; type: biochemical; conditions: for MMP-2 activity (% of control): 24 hours
T1 construct: Serum free culture supernatant of confluent human dermal fibroblast was used as the source of MMP; endogenous in cells; host or cells: human dermal fibroblasts, serum-free culture supernatant
T1 sequence (P08253 110-660): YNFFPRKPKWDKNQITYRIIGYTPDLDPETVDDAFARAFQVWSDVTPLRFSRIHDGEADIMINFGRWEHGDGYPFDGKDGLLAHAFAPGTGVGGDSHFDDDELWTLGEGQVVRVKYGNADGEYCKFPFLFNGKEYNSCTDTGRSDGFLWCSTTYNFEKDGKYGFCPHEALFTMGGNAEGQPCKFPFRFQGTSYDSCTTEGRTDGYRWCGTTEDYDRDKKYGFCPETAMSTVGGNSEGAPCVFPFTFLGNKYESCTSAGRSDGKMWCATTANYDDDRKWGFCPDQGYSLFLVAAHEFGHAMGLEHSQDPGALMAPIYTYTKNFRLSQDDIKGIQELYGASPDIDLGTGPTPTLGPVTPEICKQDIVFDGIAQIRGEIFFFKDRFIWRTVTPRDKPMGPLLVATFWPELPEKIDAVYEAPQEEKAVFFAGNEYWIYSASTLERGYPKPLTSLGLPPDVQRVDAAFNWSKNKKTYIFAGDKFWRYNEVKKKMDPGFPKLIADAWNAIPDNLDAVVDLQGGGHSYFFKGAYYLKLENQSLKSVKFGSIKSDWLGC
Method: Serum free culture supernatant of confluent human dermal fibroblast was used as the source of MMP. Equal amount of the supernatant treated with equal volume of 2 fold concentration of SDS sample buffer without reducing agent was subjected to electrophoresis The samples were loaded into each well of a 10% SDS polyacrylamide gel containing 1 mg/ml of bovine gelatin (Sigma), and run at 20 mA in ice bath by a BioRad Mini Protean gel apparatus. After dye front reached the bottom of the gel, the gel was washed three times, 15 minutes each, with 2.5% Triton X-100. Then, the gel was sliced and incubated in developing buffer (50 mM Tris-HCl, pH7.6, 10 mM CaCl2, 50 mM NaCl, 0.05% Brij35) containing SO101C or EDTA or vehicle at 37° C. for 24 hours. The gel was stained with 0.1% Coomassie blue R250 (Sigma) in 40% methanol and 10% acetic acid, and destained in 30% methanol and 7% acetic acid. The enzyme digested clear bands were visualized in the blue background. The comparison of the enzymatic activities (clear band width) was analyzed by Image J (NIH).

chondrocytes = experiment: ALP, collagen and GAGs synthesis in chondrocytes in micromass culture (staining), without or with H2O2; type: cell-based, Human; conditions: 1 mM; same experimental conditions
Method: Human articular cartilage was obtained from patients who received total joint replacement with consent. The cartilage was digested with 1 mg/ml of Class 2 and Class 4 bacterial collagenase (Worthington Chemical, Freehold, N.J.) in DMEM containing 10% fetal calf serum (FCS) and 25 μg/ml Gentamicin (C-DMEM, Gibco, Grand Island, […]) at 37° C. overnight. […] Ten μl of 1×10^7 cells/ml in C-DMEM was seeded into the center of each well of 48 multiwell culture dish (Nunc, Roskilde, Danmark). […] The media were changed twice a week for two weeks. At the end of the incubation, the media were changed with fresh DMEM. Twenty-four hours later, the media were collected for MMP zymography study and cells were fixed and stained for alkaline phosphatase (ALP), collagen or glycosaminoglycan using Naphthol AS-MX phosphate/Fast red, Sirius red, or Safranin O (Sigma), respectively.

[3] = tested on: Human bone marrow mesenchymal stem cells; experiment: ALP, collagen and GAGs synthesis in bone marrow mesenchymal stem cells in micromass culture (staining); type: cell-based; conditions: 1 mM; same experimental conditions
Method: Human bone marrow mesenchymal stem cells were obtained from patients receiving total joint replacement with consent. […] Ten μl of 1×10^7 cells/ml in C-DMEM was seeded into the center of each well of 48 multiwell culture dish (Nunc, Roskilde, Danmark). […] The media were changed twice a week for two weeks. At the end of the incubation, cells were fixed and stained for alkaline phosphatase (ALP), collagen or glycosaminoglycan using Naphthol AS-MX phosphate/Fast red, Sirius red, or Safranin O (Sigma), respectively.

MMP-2 [4] = experiment: MMP-2 activities of treated chondrocyte culture supernatants, gelatin zymography; type: cell-based, Human; conditions: 1 mM; chondrocytes treated 2 weeks
Method: Ten μl of 1×10^7 cells/ml in C-DMEM was seeded into the center of each well of 48 multiwell culture dish (Nunc, Roskilde, Danmark). Two hours later, 250 μl of F12/DMEM containing 5% FCS, 6.25 μg/ml bovine insulin, 25 μg/ml ascorbic acid and 100 nM Dexamethasone (induction medium) with various concentrations of herbal composition or glucosamine (Sigma) was added. The media were changed twice a week for two weeks. At the end of the incubation, the media were changed with fresh DMEM.
Equal amount of protein of each culture medium was mixed with equal volume of 2 fold concentration of non-reducing SDS sample buffer, and incubated at room temperature for two hours for sample to denature. The samples were loaded into each well of a 10% SDS polyacrylamide gel containing 1 mg/ml of bovine gelatin (Sigma), and run at 20 mA in ice bath by a BioRad Mini Protean gel apparatus. After dye front reached the bottom of the gel, the gel was washed three times, 15 minutes each, with 2.5% Triton X-100. Then, the gel was renatured in developing buffer (50 mM Tris-HCl, pH7.6, 10 mM CaCl2, 50 mM NaCl, 0.05% Brij35) at 37° C. for 24 hours. The gel was stained with 0.1% Coomassie blue R250 (Sigma) in 40% methanol and 10% acetic acid, and destained in 30% methanol and 7% acetic acid. […] The comparison of the enzymatic activities (clear band width) was analyzed by Image J (NIH).

human chondrocytes = experiment: Gene expression of chondrocytes (RT-PCR, normalized by β-Actin); type: cell-based; conditions: 2 weeks
Method: Reverse transcription was carried out at 37° C. for one hour by a programmable thermal controller (PTC-100, MJ Research, Inc., Watertown, Mass.). Reaction was terminated by raising the temperature to 93° C. for five minutes. PCR was performed in a thermal controller (PTC-100, MJ Research, Inc., Watertown, Mass.) with master mix (HotStarTaq DNA polymerase, Qiagen) at initial denaturation at 95° C. for 15 minutes, followed by 25 cycles of 94° C. for 1 minute, 58° C. for 40 seconds, and 72° C. for 40 seconds. The final cycle extended 72° C. for 10 minutes. The PCR products accompanied by 100 bp ET marker were separated by 1.2% agarose gel, stained with ethidium bromide and visualized under UV light. A Polaroid picture was taken by Foto/Phoresis UV documentation system (Fotodyne Inc.). Beta-actin expression under the same experimental conditions was used as a reference to normalize the expressions. The comparison of bend width of PCR was analyzed by Image J (NIH) after normalized by the expression of β-Actin.

[5] = 2,2-diphenyl-1-picrylhydrazyl (DPPH) radical scavenging activity; conditions: for Absorbance at 517 nm, Sample 1 to 3: 30 minutes, single samples; for Absorbance at 517 nm, Average: control 0.963
Method: SO101C, vitamin C or vitamin E at various concentrations were incubated with 0.4 mM 2,2-diphenyl-1-picrylhydrazyl (DPPH, Sigma) in ethanol at room temperature for 30 minutes. Absorbance at 517 nm was measured by a spectrophotometer.

[6] = biological target: T2, MMP-3 (stromelysin-1, human recombinant catalytic domain) (Homo sapiens, UniProt P08254); experiment: Inhibition of MMP-3 enzyme activity, fluorogenic substrate; type: biochemical
T2 construct: MMP-3 (stromelysin-1, human recombinant catalytic domain from Calbiochem Cat. 444217); purchased Calbiochem 444217
Method: (§1) MMP-3 (stromelysin-1, human recombinant catalytic domain from Calbiochem Cat. 444217) was activated by p-aminophenylmercuric acetate for 60 minutes at 37° C. After preincubation of SO101C or vehicle with the activated enzyme (5 nM) in a reaction mixture containing 50 mM MOPS (pH 7.2), 10 mM CaCl2 and 10 μM ZnCl2 at 37° C. for 60 minutes, the reaction was initiated by addition of 4 μM (7-methoxycoumarin-4-yl)acetyl-Pro-Leu-Gly-Leu-N-3-(2,4-dinitrophenyl)-L-2,3-diaminopropinoyl-Ala-Arg-NH2 and incubated for a further 120 minutes at 37° C. Enzyme activity was determined spectrofluorometrically by measuring the formation of fluorescent (7-methoxycoumarin-4-yl)acetyl-Pro-Leu-Gly.

[7] = biological target: T3, MMP-13 (human recombinant) (Homo sapiens, UniProt P45452); experiment: Inhibition of MMP-13 enzyme activity, fluorogenic substrate; type: biochemical
T3 construct: purchased Calbiochem 444248; host or cells: Sf9
Method: as §1, with “MMP-13 proenzyme (human recombinant, expressed in Sf9 cell,” for “MMP-3 (stromelysin-1, human recombinant catalytic domain from”, “444248)” for “444217)”, “with the activated enzyme (0.5” for “(5”, “ZnCl2 for 60 minutes” for “ZnCl2”, “C.,” for “C. for 60 minutes,”

[8] = Anti-lipid peroxidation activity (malondialdehyde/thiobarbituric acid); type: biochemical, Mouse; conditions: for OD (A532-A600): control (0) 0.973
Method: Mouse brain KCl extract was used as the source of lipid. Brain extract was incubated with 1 mM FeSO4 and 0.1 mM vitamin C at 37° C. for 90 minutes. The malondialdehyde formed by peroxyl radical was reacted with thiobarbituric acid to form an adduct that absorbed at 532 nm after centrifugation to discard TCA precipitation.

T2 sequence (P08254 100-272 limits assumed): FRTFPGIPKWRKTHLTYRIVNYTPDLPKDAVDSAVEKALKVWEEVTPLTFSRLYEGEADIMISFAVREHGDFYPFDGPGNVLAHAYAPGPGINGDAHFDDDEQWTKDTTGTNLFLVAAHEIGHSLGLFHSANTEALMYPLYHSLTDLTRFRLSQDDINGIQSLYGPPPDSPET

With `O=C(O[C@@H]1Cc2c(O)cc(O)cc2O[C@@H]1c1ccc(O)c(O)c1)c1cc(O)c(O)c(O)c1` [(−)-Epicatechin gallate] the “Inhibition (%)” value ([1]; 6.1 μM) was 50% and the IC50 ([1]; read-out: Concentration giving 50 % inhibition (SOD mimetic assay)) was 6100 nM.

In the case of `O=C(O)CN(CCN(CC(=O)O)CC(=O)O)CC(=O)O` [EDTA], the “inhibition of MMP-2 activity in cell free system (in words)” value (MMP-2 [2]) is reported as “showed dose dependent inhibition”, the “MMP-2 activity (% of control)” value (MMP-2 [2]; 0.1 mM) is reported as 46.6 % of control and the “MMP-2 activity (% of control)” value (MMP-2 [2]; 0.3 mM) is reported as 30.5 % of control.

In the case of `N[C@H]1C(O)O[C@H](CO)[C@@H](O)[C@@H]1O` (stereo partly drawn) [Glucosamine, glucosamine], the “effects on ALP, collagen and GAGs in chondrocytes (in words)” value (chondrocytes) is reported as “did not show significant effects”, the “effect on ALP, collagen and GAGs in bone marrow mesenchymal stem cells (in words)” value [3] is reported as “did not show significant effect” and the “MMP-2 activity (% of control) Active form (66K)” value (MMP-2 [4]) is reported as 118.2 % of control. For the same compound, the “MMP-2 activity (% of control) Latent form (72K)” value (MMP-2 [4]) was 92.5 % of control, the “Gene expression (% of control) ALP” value (human chondrocytes; 1 mM) was 180.0 % of control and the “Gene expression (% of control) Aggrecan” value (human chondrocytes; 1 mM) was 133.7 % of control. For the same compound, the “Gene expression (% of control) Aggrecanase” value (human chondrocytes; 1 mM) was 130.9 % of control, the “Gene expression (% of control) BMP-2” value (human chondrocytes; 1 mM) was 173.4 % of control and the “Gene expression (% of control) Col II” value (human chondrocytes; 1 mM) was 162.4 % of control. For the same compound, the “Gene expression (% of control) TGF-β” value (human chondrocytes; 1 mM) was 120.9 % of control and the “expression of cartilage metabolism related genes (in words)” value (human chondrocytes; SO101C 0.01 mg/ml or glucosamine 1 mM) was “stimulated the expression of most of the cartilage metabolism related genes”.

In the case of `O=C1O[C@H]([C@@H](O)CO)C(O)=C1O` [Vitamin C, vitamin C], the “Inhibition (%)” value ([5]; 0.01 mM) is reported as 19.5%, the “Absorbance at 517 nm, Sample 1 to 3” value ([5]; 0.01 mM) is reported as 0.753 and 0.790 and 0.781 and the “Absorbance at 517 nm, Average” value ([5]; 0.01 mM) is reported as 0.775. The “Inhibition (%)” value ([5]; 0.03 mM) was 64.8%, the “Absorbance at 517 nm, Sample 1 to 3” value ([5]; 0.03 mM) was 0.321 and 0.362 and 0.333 and the “Absorbance at 517 nm, Average” value ([5]; 0.03 mM) was 0.339. For the same compound, the “Inhibition (%)” value ([5]; 0.1 mM) was 92.5%, the “Absorbance at 517 nm, Sample 1 to 3” value ([5]; 0.1 mM) was 0.068 and 0.079 and the “Absorbance at 517 nm, Average” value ([5]; 0.1 mM) was 0.072.

With “TIMP-1: reference agent in the MMP-3 and MMP-13 inhibition tables” the “Inhibition (%)” value ([6]; 0.0076 μM) was 50%, the IC50 ([6]; read-out: Concentration giving 50 % inhibition of MMP-3) was 7.6 nM and the “Inhibition (%)” value ([7]; 0.0068 μM) was 50%. For the same compound, the IC50 ([7]; read-out: Concentration giving 50 % inhibition of MMP-13) was 6.8 nM.

For vitamin E, the “Inhibition (%)” value ([5]; 0.01 mM) was 30.6%, the “Absorbance at 517 nm, Sample 1 to 3” value ([5]; 0.01 mM) was 0.647 and 0.688 and 0.668 and the “Absorbance at 517 nm, Average” value ([5]; 0.01 mM) was 0.668. For the same compound, the “Inhibition (%)” value ([5]; 0.03 mM) was 76.9%, the “Absorbance at 517 nm, Sample 1 to 3” value ([5]; 0.03 mM) was 0.213 and 0.208 and 0.245 and the “Absorbance at 517 nm, Average” value ([5]; 0.03 mM) was 0.222. For the same compound, the “Inhibition (%)” value ([5]; 0.1 mM) was 77.5%, the “Absorbance at 517 nm, Sample 1 to 3” value ([5]; 0.1 mM) was 0.204 and 0.241 and 0.205 and the “Absorbance at 517 nm, Average” value ([5]; 0.1 mM) was 0.217. The “inhibition of lipid peroxidation (in words)” value [8] was “dose dependently inhibited lipid peroxidation”, the “OD (A532-A600)” value ([8]; 0.003 mM) was 0.844 and the “OD (A532-A600)” value ([8]; 0.01 mM) was 0.697. The “OD (A532-A600)” value ([8]; 0.03 mM) was 0.526.
